Assay results from ChEMBL document CHEMBL1201862, “PubChem BioAssay data set” (2004).
Where “and” joins values, the source holds several entries; their conditions need not be identical. Equal values may be shown once. Calls of active or inactive are those of the source.

What was measured:
[1] = Luminescence Cell-Based/Microorganism Confirmation at Dose of Inhibitors of Trypanosoma cruzi Infection. [Related pubchem assays: 1885, 1968 ]; type: functional
[2] = inhibitors of intracellular T. cruzi replication, confirmation, NIH3T3 host cells, beta-gal luminescence (AID 2044); type: functional, cell-based;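 note: intracellular parasites grown in NIH/3T3 mouse fibroblasts as host cells; luminescent beta-galactosidase reporter signal from transgenic T. cruzi replicating inside host cells; inhibitors lower the luminescence signal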
[3] = Luminescence Cell-Based Secondary HTS screen to identify cytotoxic compounds of NIH3T3 cells. [Related pubchem assays: 1885, 1968 ]; type: functional
[4] = cytotoxicity toward NIH3T3 fibroblasts, dose response, counter-screen, cell-based, ATP luminescence, mouse fibroblasts (AID 2010); type: functional;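 note: cells exposed to compound for about 90 hours before reading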
[5] = inhibitors of Trypanosoma cruzi host-cell infection, confirmation, beta-gal luminescence, NIH3T3 host cells (AID 2630); type: functional, cell-based; conditions: Mus musculus
[6] = cells
[7] = NIH-3T3 fibroblast cytotoxicity, dose response, cytotoxicity control, cell-based, fluorescence, Alamar Blue, secondary assay (AID 2327); type: functional;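 note: NIH-3T3 mouse fibroblasts cultured with fluconazole at 8 µg/mL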
[8] = system: Streptococcus sp. 'group A'; test: growth inhibition of control SK(-) GAS strain, dose response, counter-screen for streptokinase expression inhibitor project, luminescence, kanamycin, BacTiterGlo, confirmation (AID 1900); type: functional, organism-based
[9] = molecular target: T1, Streptokinase A (Streptococcus pyogenes serotype M1, UniProt P10520); test: S. pyogenes streptokinase expression inhibitors, potency, dose response, plasminogen activation absorbance, OD405 (AID 1914); type: functional, Streptococcus pyogenes M1 GAS;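 note: secreted streptokinase activity via plasminogen activation per viability signal from cell pellet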
T1 sequence (P10520 whole entry): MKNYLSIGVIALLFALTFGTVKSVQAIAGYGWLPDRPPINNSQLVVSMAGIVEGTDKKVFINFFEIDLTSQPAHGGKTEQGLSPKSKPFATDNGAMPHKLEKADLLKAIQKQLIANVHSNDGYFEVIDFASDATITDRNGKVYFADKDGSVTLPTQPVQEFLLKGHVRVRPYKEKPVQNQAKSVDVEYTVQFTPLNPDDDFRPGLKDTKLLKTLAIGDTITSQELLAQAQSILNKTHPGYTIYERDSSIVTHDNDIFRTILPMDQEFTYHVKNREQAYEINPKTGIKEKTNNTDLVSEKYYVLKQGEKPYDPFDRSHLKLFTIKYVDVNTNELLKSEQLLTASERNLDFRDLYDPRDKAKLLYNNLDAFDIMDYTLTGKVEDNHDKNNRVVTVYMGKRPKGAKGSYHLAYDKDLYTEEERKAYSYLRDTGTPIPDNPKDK

[10] = C. albicans growth with fluconazole, confirmation, fluorescence, retest (AID 2467); type: functional, cell-based
[11] = system: Streptococcus; test: Group A Streptococcus viability loss, dose response, counter-screen for streptokinase expression inhibitor project, luminescence, BacTiterGlo (AID 1915); type: functional, organism-based;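 note: potency for reduction of bacterial viability or growth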
[12] = molecular target: Intestinal-type alkaline phosphatase (Mus musculus, UniProt P24822); test: PubChem AID 488875; type: functional
[13] = molecular target: T2, Intestinal-type alkaline phosphatase (Homo sapiens, UniProt P09923); test: human intestinal alkaline phosphatase activators, dose response, biochemical, luminescence, uHTS hits (AID 463120); type: functional
[14] = molecular target: T2, Intestinal-type alkaline phosphatase; test: human IAP activators, dose response, biochemical, luminescent, uHTS hits, set 2 (AID 488817); type: functional;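 note: potency of activators that raise enzyme activity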
[15] = molecular target: T3, Alkaline phosphatase, tissue-nonspecific isozyme (Homo sapiens, UniProt P05186); test: TNAP enzyme activators, dose response, selectivity assay for human IAP activator project, biochemical, TNAP isozyme, human IAP uHTS hits (AID 488886); type: functional;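 note: potency of compounds raising TNAP activity as a selectivity check on IAP activators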
T3 sequence (P05186 whole entry): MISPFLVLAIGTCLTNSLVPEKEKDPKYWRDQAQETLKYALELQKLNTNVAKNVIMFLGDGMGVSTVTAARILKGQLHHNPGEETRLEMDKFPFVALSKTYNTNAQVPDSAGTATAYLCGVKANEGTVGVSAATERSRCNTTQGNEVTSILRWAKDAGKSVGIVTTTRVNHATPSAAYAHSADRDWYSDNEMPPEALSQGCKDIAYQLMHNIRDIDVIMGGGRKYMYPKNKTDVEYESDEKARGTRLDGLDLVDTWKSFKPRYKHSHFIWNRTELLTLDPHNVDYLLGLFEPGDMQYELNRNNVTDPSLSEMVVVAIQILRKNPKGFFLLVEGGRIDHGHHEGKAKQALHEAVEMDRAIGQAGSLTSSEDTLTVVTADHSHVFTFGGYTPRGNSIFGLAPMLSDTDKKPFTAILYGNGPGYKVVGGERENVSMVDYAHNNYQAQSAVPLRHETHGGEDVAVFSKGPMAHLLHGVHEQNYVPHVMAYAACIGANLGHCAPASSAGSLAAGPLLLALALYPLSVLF

[16] = molecular target: T4, Estrogen receptor (Homo sapiens, UniProt P03372);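 note: potency for inhibiting coactivator peptide recruitment to the receptor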
T4 sequence (P03372 whole entry): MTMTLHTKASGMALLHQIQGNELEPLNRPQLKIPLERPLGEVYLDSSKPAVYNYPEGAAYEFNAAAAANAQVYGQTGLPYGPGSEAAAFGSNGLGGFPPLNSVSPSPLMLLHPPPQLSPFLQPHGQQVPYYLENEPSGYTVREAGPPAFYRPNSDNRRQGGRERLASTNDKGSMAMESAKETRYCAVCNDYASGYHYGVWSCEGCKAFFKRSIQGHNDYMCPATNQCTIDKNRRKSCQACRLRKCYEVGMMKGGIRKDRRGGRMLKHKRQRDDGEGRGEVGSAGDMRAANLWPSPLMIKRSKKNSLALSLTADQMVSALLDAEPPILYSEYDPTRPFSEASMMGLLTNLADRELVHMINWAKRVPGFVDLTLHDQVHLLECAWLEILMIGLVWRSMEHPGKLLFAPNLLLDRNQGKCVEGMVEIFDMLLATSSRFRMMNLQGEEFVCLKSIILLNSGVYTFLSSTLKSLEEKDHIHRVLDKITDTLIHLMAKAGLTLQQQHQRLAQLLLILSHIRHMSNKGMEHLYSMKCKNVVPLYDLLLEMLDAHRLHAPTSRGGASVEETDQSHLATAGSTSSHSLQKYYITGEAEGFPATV

[17] = molecular target: Mitogen-activated protein kinase 10 (Homo sapiens, UniProt P53779); test: Dose response biochemical screening assay for inhibitors of c-Jun N-Terminal Kinase 3 (JNK3). [Related pubchem assays: 746 ]
[18] = molecular target: Trypsin (Sus scrofa, UniProt P00761); test: porcine trypsin inhibitors, dose response, selectivity assay for Rce1 protease inhibitor project, biochemical, quenched peptide fluorescence, cherry-pick (AID 488789)
[19] = molecular target: T5, CAAX prenyl protease 2 (Saccharomyces cerevisiae S288c, UniProt Q03530); type: biochemical
T5 sequence (Q03530 whole entry): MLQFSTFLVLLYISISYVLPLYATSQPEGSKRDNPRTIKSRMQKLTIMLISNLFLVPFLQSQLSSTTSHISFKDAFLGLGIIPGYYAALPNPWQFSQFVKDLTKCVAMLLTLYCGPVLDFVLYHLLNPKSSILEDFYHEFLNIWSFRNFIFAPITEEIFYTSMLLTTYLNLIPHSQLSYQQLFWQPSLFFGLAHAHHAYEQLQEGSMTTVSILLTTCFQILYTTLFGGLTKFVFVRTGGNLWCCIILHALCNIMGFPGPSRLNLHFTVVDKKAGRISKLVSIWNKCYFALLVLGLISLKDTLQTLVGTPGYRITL

[20] = molecular target: CAAX prenyl protease 1 (Saccharomyces cerevisiae S288c, UniProt P47154); test: Ste24 protease inhibitors, dose response, biochemical, S. cerevisiae, plate reader, cherry-pick (AID 488815)
[21] = molecular target: T6, Genome polyprotein (Hepatitis C virus, UniProt Q2Q167); test: HCV core protein dimerization inhibitors, dose response, biochemical, TR-FRET (AID 2159); set-up: species or system Hepacivirus hominis;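 note: blocks dimerization of HCV core protein measured by TR-FRET between tagged core106 pairs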
T6 sequence (Q2Q167 whole entry): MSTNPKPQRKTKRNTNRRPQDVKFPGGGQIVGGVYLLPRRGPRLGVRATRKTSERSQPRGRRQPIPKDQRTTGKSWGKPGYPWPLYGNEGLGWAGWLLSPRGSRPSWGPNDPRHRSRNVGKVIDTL

[22] = molecular target: Protein Rev (Human immunodeficiency virus type 1 group M subtype B (isolate WMJ22)(HIV-1), UniProt P05866); test: HIV-1 Rev-RRE RNA binding disruptors, dose response, biochemical, protein-RNA interaction (AID 842); set-up: species or system Human immunodeficiency virus 1
[23] = molecular target: T7, Voltage-gated N-type calcium channel alpha-1B subunit/Amyloid beta A4 precursor protein-binding family A member 1 (Homo sapiens, UniProt Q00975+Q02410); type: protein assay
[24] = molecular target: T7, Voltage-gated N-type calcium channel alpha-1B subunit/Amyloid beta A4 precursor protein-binding family A member 1; type: protein assay; remark: listed apart in the source
[25] = molecular target: T8, Induced myeloid leukemia cell differentiation protein Mcl-1 (Homo sapiens, UniProt Q07820); test: MCL1-BIM BH3 interaction inhibitors, dose response, biochemical, fluorescence polarization, BIM-BH3 peptide, 1536-well (AID 2217)
[26] = molecular target: Protein-tyrosine kinase 2-beta (Homo sapiens, UniProt Q14289);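 note: potency of inhibitors of PYK2 kinase phosphorylation of poly-GT substrate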
[27] = molecular target: Bcl-2-like protein 1 (Homo sapiens, UniProt Q07817); test: BCL-XL inhibitors, dose response, selectivity assay for MCL1 inhibitor project, biochemical, fluorescence polarization, 1536-well (AID 2218)
[28] = molecular target: T8, Induced myeloid leukemia cell differentiation protein Mcl-1; type: functional
[29] = molecular target: SUMO E1/E2 (Homo sapiens, UniProt P63279+Q9UBE0+Q9UBT2); test: SAR analysis of SUMOylation using HTRF in an in-Vitro dose response assay. [Related pubchem assays (depositor defined):AID2006, AID2011, AID2018, AID2069, AID2658]; type: functional
[30] = molecular target: T7, Voltage-gated N-type calcium channel alpha-1B subunit/Amyloid beta A4 precursor protein-binding family A member 1; test: disruptors of Mint-PDZ/N-type channel peptide interaction – biochemical, HTRF, set 2, SAR follow-up (AID 434980); type: functional
[31] = molecular target: T7, Voltage-gated N-type calcium channel alpha-1B subunit/Amyloid beta A4 precursor protein-binding family A member 1; test: disruptors of Mint-PDZ/N-type channel peptide interaction – biochemical, HTRF, SAR follow-up (AID 2489); type: functional
[32] = molecular target: DNA (cytosine-5)-methyltransferase 1 (Homo sapiens, UniProt P26358); test: DNMT1 methyltransferase inhibitors, confirmation, biochemical, fluorescent molecular beacon (AID 602386); type: functional
[33] = molecular target: T9, Probable nicotinate-nucleotide adenylyltransferase (Staphylococcus aureus (strain N315), UniProt P65502); type: functional, Staphylococcus aureus subsp. aureus N315;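 for IC50 Mean: confirmatory dose-response retesting of NadD inhibitor hits first found in an ultra-high-throughput screen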
[34] = molecular target: T9, Probable nicotinate-nucleotide adenylyltransferase; type: functional, Staphylococcus aureus subsp. aureus N315; conditions: read-out: IC50_Mean

T7 sequence (Q00975 whole entry): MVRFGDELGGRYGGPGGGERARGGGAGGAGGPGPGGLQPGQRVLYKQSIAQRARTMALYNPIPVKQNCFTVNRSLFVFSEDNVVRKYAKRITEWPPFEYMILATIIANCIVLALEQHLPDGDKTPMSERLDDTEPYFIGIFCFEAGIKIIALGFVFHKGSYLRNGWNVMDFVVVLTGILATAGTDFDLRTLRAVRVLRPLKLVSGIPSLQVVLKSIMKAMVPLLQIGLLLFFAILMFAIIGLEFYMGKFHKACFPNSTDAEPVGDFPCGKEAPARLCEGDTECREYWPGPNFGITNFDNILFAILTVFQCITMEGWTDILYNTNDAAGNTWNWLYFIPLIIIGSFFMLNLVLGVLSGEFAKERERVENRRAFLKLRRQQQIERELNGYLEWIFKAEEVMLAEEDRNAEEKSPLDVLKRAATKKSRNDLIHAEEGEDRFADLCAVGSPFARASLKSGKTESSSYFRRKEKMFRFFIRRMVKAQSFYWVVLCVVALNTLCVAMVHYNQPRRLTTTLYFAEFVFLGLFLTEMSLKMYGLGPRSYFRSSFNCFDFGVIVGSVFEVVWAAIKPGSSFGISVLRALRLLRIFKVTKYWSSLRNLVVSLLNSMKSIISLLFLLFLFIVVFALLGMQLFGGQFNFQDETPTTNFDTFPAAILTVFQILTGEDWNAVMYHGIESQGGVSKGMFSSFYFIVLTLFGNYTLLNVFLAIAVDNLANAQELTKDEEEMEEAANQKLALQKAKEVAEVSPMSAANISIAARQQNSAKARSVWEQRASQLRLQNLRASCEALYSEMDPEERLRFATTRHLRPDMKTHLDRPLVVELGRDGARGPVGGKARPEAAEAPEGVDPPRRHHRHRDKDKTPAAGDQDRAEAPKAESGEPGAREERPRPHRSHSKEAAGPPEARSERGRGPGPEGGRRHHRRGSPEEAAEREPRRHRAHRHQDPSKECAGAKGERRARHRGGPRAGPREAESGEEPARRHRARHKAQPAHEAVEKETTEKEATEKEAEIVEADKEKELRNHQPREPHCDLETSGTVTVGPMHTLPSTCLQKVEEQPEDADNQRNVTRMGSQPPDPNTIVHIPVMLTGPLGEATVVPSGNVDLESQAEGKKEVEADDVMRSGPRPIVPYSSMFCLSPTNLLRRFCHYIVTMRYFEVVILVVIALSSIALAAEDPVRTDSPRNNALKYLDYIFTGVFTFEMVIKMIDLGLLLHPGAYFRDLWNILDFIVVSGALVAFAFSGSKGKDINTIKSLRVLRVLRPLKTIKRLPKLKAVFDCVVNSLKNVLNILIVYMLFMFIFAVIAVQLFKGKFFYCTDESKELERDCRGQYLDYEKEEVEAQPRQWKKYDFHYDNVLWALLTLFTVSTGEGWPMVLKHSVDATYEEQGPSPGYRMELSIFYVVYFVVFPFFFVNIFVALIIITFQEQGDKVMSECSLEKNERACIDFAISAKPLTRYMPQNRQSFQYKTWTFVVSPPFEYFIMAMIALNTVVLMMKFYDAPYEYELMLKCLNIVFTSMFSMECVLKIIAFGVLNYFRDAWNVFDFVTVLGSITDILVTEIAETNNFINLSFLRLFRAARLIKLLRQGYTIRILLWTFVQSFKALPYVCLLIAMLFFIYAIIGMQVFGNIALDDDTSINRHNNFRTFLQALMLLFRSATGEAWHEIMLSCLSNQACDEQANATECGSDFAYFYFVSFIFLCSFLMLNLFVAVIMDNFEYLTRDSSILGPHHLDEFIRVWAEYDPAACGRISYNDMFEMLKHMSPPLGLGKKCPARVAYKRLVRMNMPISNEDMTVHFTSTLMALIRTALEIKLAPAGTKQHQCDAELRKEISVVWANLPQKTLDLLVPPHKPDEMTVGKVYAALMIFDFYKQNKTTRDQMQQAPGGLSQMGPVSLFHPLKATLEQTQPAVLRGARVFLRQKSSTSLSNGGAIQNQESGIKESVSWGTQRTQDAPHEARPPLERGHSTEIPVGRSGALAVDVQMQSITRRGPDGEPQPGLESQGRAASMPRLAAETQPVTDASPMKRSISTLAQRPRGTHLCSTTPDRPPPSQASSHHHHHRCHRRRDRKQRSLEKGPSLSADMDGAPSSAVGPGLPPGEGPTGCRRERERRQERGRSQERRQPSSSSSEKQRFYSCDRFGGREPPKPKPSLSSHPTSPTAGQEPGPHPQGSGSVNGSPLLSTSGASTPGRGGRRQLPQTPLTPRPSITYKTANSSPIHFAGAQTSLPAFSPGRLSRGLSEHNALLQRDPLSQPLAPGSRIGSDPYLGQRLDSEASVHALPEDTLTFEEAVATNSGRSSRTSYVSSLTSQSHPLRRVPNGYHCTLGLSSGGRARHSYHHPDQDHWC
T7 sequence (Q02410 whole entry): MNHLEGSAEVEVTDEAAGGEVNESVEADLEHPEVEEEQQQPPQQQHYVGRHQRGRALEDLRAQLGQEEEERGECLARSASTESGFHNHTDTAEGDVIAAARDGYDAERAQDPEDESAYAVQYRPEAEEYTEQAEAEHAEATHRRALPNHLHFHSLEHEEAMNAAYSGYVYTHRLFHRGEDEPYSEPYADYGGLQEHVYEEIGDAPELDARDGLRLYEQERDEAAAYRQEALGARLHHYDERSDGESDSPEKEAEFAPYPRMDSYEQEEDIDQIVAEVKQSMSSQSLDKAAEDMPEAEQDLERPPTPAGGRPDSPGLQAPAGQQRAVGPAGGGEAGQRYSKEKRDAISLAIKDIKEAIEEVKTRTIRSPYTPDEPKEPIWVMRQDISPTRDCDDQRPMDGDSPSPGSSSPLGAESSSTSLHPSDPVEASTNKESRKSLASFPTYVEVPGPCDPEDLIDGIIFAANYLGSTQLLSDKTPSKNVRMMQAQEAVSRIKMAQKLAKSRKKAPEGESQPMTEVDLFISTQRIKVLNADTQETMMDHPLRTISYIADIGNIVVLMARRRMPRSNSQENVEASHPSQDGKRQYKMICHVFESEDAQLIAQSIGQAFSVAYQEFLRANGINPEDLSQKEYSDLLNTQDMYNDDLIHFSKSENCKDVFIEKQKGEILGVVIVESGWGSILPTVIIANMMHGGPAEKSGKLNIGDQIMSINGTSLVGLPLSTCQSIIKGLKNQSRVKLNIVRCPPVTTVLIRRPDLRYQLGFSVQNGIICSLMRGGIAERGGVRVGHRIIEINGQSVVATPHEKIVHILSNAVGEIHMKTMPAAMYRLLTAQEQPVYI
T9 sequence (P65502 whole entry): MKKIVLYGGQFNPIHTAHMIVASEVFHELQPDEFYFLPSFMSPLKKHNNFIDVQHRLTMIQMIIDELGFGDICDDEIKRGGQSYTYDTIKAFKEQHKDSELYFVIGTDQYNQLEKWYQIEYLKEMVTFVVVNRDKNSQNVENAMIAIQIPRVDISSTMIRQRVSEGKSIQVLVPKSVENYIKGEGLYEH
T8 sequence (Q07820 whole entry): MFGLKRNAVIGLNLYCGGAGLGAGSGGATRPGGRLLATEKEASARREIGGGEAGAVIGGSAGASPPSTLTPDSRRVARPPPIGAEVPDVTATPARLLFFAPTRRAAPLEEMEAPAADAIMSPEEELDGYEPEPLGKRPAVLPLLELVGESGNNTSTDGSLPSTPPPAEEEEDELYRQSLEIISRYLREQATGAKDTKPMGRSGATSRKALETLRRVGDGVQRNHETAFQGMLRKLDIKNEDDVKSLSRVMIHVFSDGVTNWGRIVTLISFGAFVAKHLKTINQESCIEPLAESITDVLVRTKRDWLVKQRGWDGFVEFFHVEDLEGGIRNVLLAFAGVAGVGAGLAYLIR
T2 sequence (P09923 whole entry): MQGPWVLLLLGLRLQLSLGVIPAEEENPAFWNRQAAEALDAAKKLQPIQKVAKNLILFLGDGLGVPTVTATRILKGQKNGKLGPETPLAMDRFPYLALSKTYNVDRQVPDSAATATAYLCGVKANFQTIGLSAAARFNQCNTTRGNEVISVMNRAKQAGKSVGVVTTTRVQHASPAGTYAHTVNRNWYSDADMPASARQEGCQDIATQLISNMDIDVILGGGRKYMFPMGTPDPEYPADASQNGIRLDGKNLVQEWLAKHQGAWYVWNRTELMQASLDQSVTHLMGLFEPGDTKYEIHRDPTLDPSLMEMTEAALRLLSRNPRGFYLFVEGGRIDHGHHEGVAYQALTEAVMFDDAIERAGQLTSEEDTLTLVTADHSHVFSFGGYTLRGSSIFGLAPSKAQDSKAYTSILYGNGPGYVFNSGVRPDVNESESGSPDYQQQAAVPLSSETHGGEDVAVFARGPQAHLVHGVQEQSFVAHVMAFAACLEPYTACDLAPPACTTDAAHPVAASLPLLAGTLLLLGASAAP
Chain of CAAX prenyl protease 1 (P47154 whole entry): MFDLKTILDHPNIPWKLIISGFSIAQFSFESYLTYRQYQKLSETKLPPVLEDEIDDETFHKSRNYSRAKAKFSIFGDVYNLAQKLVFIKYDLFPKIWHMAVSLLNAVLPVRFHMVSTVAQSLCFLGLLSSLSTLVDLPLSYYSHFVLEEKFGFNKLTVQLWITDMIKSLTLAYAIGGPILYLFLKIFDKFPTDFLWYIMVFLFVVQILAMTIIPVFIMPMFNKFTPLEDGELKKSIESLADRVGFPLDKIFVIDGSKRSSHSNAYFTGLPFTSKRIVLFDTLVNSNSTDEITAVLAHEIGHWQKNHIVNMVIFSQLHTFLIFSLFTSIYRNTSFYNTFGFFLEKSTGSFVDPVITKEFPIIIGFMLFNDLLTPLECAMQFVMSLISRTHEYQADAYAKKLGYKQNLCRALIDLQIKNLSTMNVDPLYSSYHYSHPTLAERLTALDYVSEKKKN
Chain of Protein Rev (P05866 whole entry): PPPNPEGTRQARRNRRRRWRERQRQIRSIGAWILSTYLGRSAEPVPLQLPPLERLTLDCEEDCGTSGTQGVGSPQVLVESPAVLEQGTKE
Chain of Trypsin (P00761 whole entry): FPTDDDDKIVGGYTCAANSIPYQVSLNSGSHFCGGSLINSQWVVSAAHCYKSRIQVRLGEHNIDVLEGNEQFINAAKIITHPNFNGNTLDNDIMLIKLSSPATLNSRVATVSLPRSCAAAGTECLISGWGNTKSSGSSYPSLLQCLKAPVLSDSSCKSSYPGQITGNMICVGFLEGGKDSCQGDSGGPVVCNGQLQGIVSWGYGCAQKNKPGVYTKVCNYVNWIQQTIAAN

Structure (SMILES): CC(=O)c1cccc(CN2CCCC(CCC(=O)NCc3ccc(F)c(F)c3)C2)c1 (centres undefined)
- EC50 [1]: 0.069 µM (active)
- EC50 [2]: < 0.1 µM (active)
- EC50 [3]: > 195 µM (not active)
- EC50 [4]: > 60 µM (not active)
- EC50 [5]: 0.069 µM (active)
- EC50 [6]: 0.07 µM (active)

Structure (SMILES): CC(C)CC(=O)NC(=S)NNC(=O)c1ccc(NC(=O)C2CCCCC2)cc1
- EC50 [7]: 43.7 µM (active)
- EC50 [8]: 0.517 µM (active)
- EC50 [9]: > 150 µM (not active)
- EC50 [10]: 2.57 µM (active)
- EC50 [11]: 9.89 µM (active)
- EC50 [12]: 43.2 µM (active)
- EC50 [13]: 18.7 µM (active)
- EC50 [14]: 58.1 µM (active)
- EC50 [15]: 70.2 µM (active)

Structure (SMILES): O=C1c2ccccc2NC2=NCCCCN12
- IC50 [16]: > 50 µM (not active)
- IC50 [17]: 39.5 µM (not active)
- AC50 [18]: 11.4 µM (active)
- AC50 [19]: 31.1 µM (active)
- AC50 [20]: 3.9 µM (active)

Structure (SMILES): O=C(N/N=C/c1cccc(F)c1)c1cc(-c2ccco2)nc2ccccc12
- IC50 [21]: > 49.8 µM (not active)
- IC50 [22]: > 79.4 µM (not active)
- IC50 [23]: 3.18 µM (active)
- IC50 [24]: 8.21 µM (active)
- IC50 [25]: 7.19 µM (active)
- IC50 [26]: 2.25 µM (active)
- IC50 [27]: > 109 µM (not active)
- IC50 [28]: 1.67 µM (active)
- IC50 [29]: 7.16 µM (active) and 9.07 µM (active)
- IC50 [30]: 12.9 µM (active) and 4.79 µM (active)
- IC50 [31]: > 56.8 µM (inactive) and 8.96 µM (active)
- IC50 [32]: 4.81 µM (active)
- IC50 [33]: 7.33 µM (active)
- IC50 [34]: 21.1 µM (active)
